Experimental data taken from patent publication US9987278B2, “Pharmaceutical composition for treating FLT3 mutation-positive cancer, mutant FLT3 inhibitor and uses thereof” (FUJIFILM Corporation, priority 2014, dated 2018).

Experiments:
Assay type in all cases: cell-based
32D FLT3/FL cells = assay: Cell growth assay, FLT3/FLT3 ligand-coexpressing 32D cell line; conditions: Mus musculus, 48 h, FLT3/FL, 2 days with compound, read-out: GI50 value for growth of FLT3 protein-expressing 32D cells
Method: RPMI1640 and DMEM were purchased from Life Technologies or SIGMA. The 32D cells were obtained from RIKEN Bioresource Center, and cultured in the presence of 5% CO2 at 37° C. using an RPMI1640 medium containing 1 ng/mL mouse IL-3, 10% fetal bovine serum (FBS), 100 U/mL penicillin and […] streptomycin. The PLAT-E cells were kindly provided by Dr. Kitamura Toshio of Tokyo University and cultured in a DMEM medium containing 1 μg/mL puromycin, 10 μg/mL blasticidin S, 10% FBS, 100 U/mL penicillin and […] streptomycin. […] A pGEM-T vector, FuGENE6 and CellTiter 96 AQueous One Solution Cell Proliferation Assay were purchased from Promega Corporation.
(§1) Individual cells were seeded onto a 96-well plate (Becton, Dickinson and Company) at a density of 1000 to 10000 cells/well, and the cell culture was started at 37° C. in the presence of 5% CO2. On the next day, the compound diluted in 3-fold common ratio was added to each well, followed by further culturing for 2 days. Then, in order to evaluate the cell viability, a CellTiter 96 AQueous One SolutionReagent was added to each well according to the Promega Corporation's protocol, followed by culturing for 1 hour. […] In a case where the absorbance is insufficient, the absorbance was measured after performing the culturing for another 1 to 2 hours.

32D FLT3 D835Y cells = assay: Cell growth assay, 32D FLT3 D835Y; conditions: Mus musculus, 48 h, FLT3 D835Y, 2 days with compound, read-out: GI50 value for growth of FLT3 protein-expressing 32D cells
Method: (§2) After the virus-containing culture supernatant was added to the mouse hematopoietic precursor cell line 32D cells in the presence of 10 μg/mL polybrene, and the cells were cultured in the presence of 0.5 ng/mL mouse IL-3.
as §1

32D FLT3 D835V cells = assay: Cell growth assay, 32D FLT3 D835V; conditions: Mus musculus, 48 h, FLT3 D835V, 2 days with compound, read-out: GI50 value for growth of FLT3 protein-expressing 32D cells
Method: as §2, §1

32D FLT3 D835H cells = assay: Cell growth assay, 32D FLT3 D835H; conditions: Mus musculus, 48 h, FLT3 D835H, 2 days with compound, read-out: GI50 value for growth of FLT3 protein-expressing 32D cells
Method: as §2, §1

32D FLT3 D835E cells = assay: Cell growth assay, 32D FLT3 D835E; conditions: Mus musculus, 48 h, FLT3 D835E, 2 days with compound, read-out: GI50 value for growth of FLT3 protein-expressing 32D cells
Method: as §2, §1

32D FLT3 D835N cells = assay: Cell growth assay, 32D FLT3 D835N; conditions: Mus musculus, 48 h, FLT3 D835N, 2 days with compound, read-out: GI50 value for growth of FLT3 protein-expressing 32D cells
Method: as §2, §1

32D FLT3 D835Ins cells = assay: Cell growth assay, 32D FLT3 D835Ins; conditions: Mus musculus, 48 h, FLT3 D835Ins (I836 to leucine and aspartic acid), 2 days with compound, read-out: GI50 value for growth of FLT3 protein-expressing 32D cells
Method: as §2, §1

32D FLT3 Y842C cells = assay: Cell growth assay, 32D FLT3 Y842C; conditions: Mus musculus, 48 h, FLT3 Y842C, 2 days with compound, read-out: GI50 value for growth of FLT3 protein-expressing 32D cells
Method: as §2, §1

32D FLT3 Y842H cells = assay: Cell growth assay, 32D FLT3 Y842H; conditions: Mus musculus, 48 h, FLT3 Y842H, 2 days with compound, read-out: GI50 value for growth of FLT3 protein-expressing 32D cells
Method: as §2, §1

[1] = system: FLT3 ITD-expressing 32D cells; assay: Cell growth assay, FLT3 ITD-expressing 32D cells; conditions: Mus musculus, read-out: GI50 value for growth of FLT3 protein-expressing 32D cells
Excerpt: The ITD-mutant FLT3-expressing vector was constructed by introducing an ITD-mutant FLT3 gene (clone Mt2) described in Kiyoi H, et al., Leukemia, Vol. 12, pp. 1333 to 1337, 1998 into a pMXs-IP retroviral vector as a sequence having a FLAG sequence added to the C-terminal thereof.
(§3) The mutant FLT3 pMXs-IP retroviral vectors prepared according to the above-mentioned procedure were introduced into PLAT-E cells by using FuGENE6, followed by culturing for 2 days, and the culture supernatant containing viruses was collected. After the virus-containing culture supernatant was added to the mouse hematopoietic precursor cell line 32D cells in the presence of 10 μg/mL polybrene, and the cells were cultured in the presence of 0.5 ng/mL mouse IL-3. […]
(§4) Individual cells were seeded onto a 96-well plate (Becton, Dickinson and Company) at a density of 1000 to 10000 cells/well, and the cell culture was started at 37° C. in the presence of 5% CO2. […] Thereafter, the absorbance (OD=492 nm) was measured using an MPR-A4i II microplate reader (Tosoh Corporation). In a case where the absorbance is insufficient, the absorbance was measured after performing the culturing for another 1 to 2 hours. […]

[2] = system: FLT3 ITD.D835Y-expressing 32D cells; assay: Cell growth assay, FLT3 ITD.D835Y-expressing 32D cells; conditions: Mus musculus, read-out: GI50 value for growth of FLT3 protein-expressing 32D cells
Excerpt: The ITD.D835Y-mutant FLT3-expressing vector was constructed by replacing a sequence containing aspartic acid 835 cleaved by Sphl, in the C-terminal FLAG sequence-added ITD-mutant FLT3 gene inserted into a pGEM-T vector, with the corresponding sequence of the C-terminal FLAG sequence-added D835Y-mutant FLT3 gene inserted into a pGEM-T vector, and then inserting the whole length of C-terminal FLAG sequence-added ITD.D835Y-mutant FLT3 sequence into a pMXs-IP retroviral vector.
as §3, §4

[3] = system: FLT3 ITD.Y842C-expressing 32D cells; assay: Cell growth assay, FLT3 ITD.Y842C-expressing 32D cells; conditions: Mus musculus, read-out: GI50 value for growth of FLT3 protein-expressing 32D cells
Excerpt: (§5) The ITD.Y842C-mutant or ITD.Y842H-mutant FLT3-expressing vector was constructed by introducing Y842C and Y842H mutations into the C-terminal FLAG sequence-added ITD-mutant FLT3 gene inserted into a pGEM-T vector as a template, using the primers shown below and according to the protocol of a QuikChange Site-Directed Mutagenesis Kit (Stratagene Corporation), and then inserting the whole length of the ITD.Y842-mutant FLT3 gene into a pMXs-IP retroviral vector. Introduced mutations were confirmed by sequence analysis.
(§6) The mutant FLT3 pMXs-IP retroviral vectors prepared according to the above-mentioned procedure were introduced into PLAT-E cells by using FuGENE6, followed by culturing for 2 days, and the culture supernatant containing viruses was collected. […]
as §4

[4] = system: FLT3 ITD.Y842H-expressing 32D cells; assay: Cell growth assay, FLT3 ITD.Y842H-expressing 32D cells; conditions: Mus musculus, read-out: GI50 value for growth of FLT3 protein-expressing 32D cells
Excerpt: as §5, §6, §4

In the case of `CCCNc1nc(Nc2ccc(C#N)cc2)ncc1C#CCCCNC(=O)[C@H](C)N(C)C(=O)/C=C/CN(C)C` [Compound 38], the GI50 (32D FLT3/FL cells) is reported as 1 to 10 nM, the GI50 (32D FLT3 D835Y cells) is reported as under 1 nM and the GI50 (32D FLT3 D835V cells) is reported as under 1 nM. The GI50 (32D FLT3 D835H cells) was 1 to 10 nM, the GI50 (32D FLT3 D835E cells) was 1 to 10 nM and the GI50 (32D FLT3 D835N cells) was 1 to 10 nM. It also gave a GI50 (32D FLT3 D835Ins cells) of 1 to 10 nM, a GI50 (32D FLT3 Y842C cells) of 1 to 10 nM and a GI50 (32D FLT3 Y842H cells) of 1 to 10 nM. For the same molecule, the GI50 [1] was 1 to 10 nM, the GI50 [2] was 1 to 10 nM and the GI50 [3] was 1 to 10 nM. The GI50 [4] was under 1 nM.
